Key:
Type in all cases: cell-based
OVCAR-5 = experiment: NCI DTP cell line screen (SRB), Ovarian Cancer
Protocol: (§1) Screening of compounds 70 and 71 against several cancer cell lines The human tumor cell lines of the cancer screening panel are grown in RPMI 1640 medium containing 5% fetal bovine serum and 2 mM L-glutamine. For a typical screening experiment, cells are inoculated into 96 well microtiter plates in 100 μL at plating densities ranging from 5,000 to 40,000 cells/well depending on the doubling time of individual cell lines. After cell inoculation, the microtiter plates are incubated at 37° C., 5% CO2, 95% air and 100% relative humidity for 24 h prior to addition of experimental drugs.
(§2) After 24 h, two plates of each cell line are fixed in situ with TCA, to represent a measurement of the cell population for each cell line at the time of drug addition (Tz). Experimental drugs are solubilized in dimethyl sulfoxide at 400-fold the desired final maximum test concentration and stored frozen prior to use. At the time of drug addition, an aliquot of frozen concentrate is thawed and diluted to twice the desired final maximum test concentration with complete medium containing 50 μg/ml gentamicin. Additional four, 10-fold or ½ log serial dilutions are made to provide a total of five drug concentrations plus control. Aliquots of 100 μl of these different drug dilutions are added to the appropriate microtiter wells already containing 100 μl of medium, resulting in the required final drug concentrations.
(§3) Following drug addition, the plates are incubated for an additional 48 h at 37° C., 5% CO2, 95% air, and 100% relative humidity. For adherent cells, the assay is terminated by the addition of cold TCA. Cells are fixed in situ by the gentle addition of 50 μl of cold 50% (w/v) TCA (final concentration, 10% TCA) and incubated for 60 minutes at 4° C. The supernatant is discarded, and the plates are washed five times with tap water and air dried. Sulforhodamine B (SRB) solution (100 μl) at 0.4% (w/v) in 1% acetic acid is added to each well, and plates are incubated for 10 minutes at room temperature. After staining, unbound dye is removed by washing five times with 1% acetic acid and the plates are air dried. Bound stain is subsequently solubilized with 10 mM trizma base, and the absorbance is read on an automated plate reader at a wavelength of 515 nm. For suspension cells, the methodology is the same except that the assay is terminated by fixing settled cells at the bottom of the wells by gently adding 50 μl of 80% TCA (final concentration, 16% TCA). Using the seven absorbance measurements [time zero, (Tz), control growth, (C), and test growth in the presence of drug at the five concentration levels (Ti)], the percentage growth is calculated at each of the drug concentrations levels. Percentage growth inhibition is calculated as: [(Ti−Tz)/(C−Tz)]×100 for concentrations for which Ti>/=Tz [(Ti−Tz)/Tz]×100 for concentrations for which Ti<Tz
(§4) Three dose response parameters are calculated for each experimental agent. […] The drug concentration resulting in total growth inhibition (TGI) is calculated from Ti=Tz. […] Values are calculated for each of these three parameters if the level of activity is reached; however, if the effect is not reached or is exceeded, the value for that parameter is expressed as greater or less than the maximum or minimum concentration tested.
(§5) The methods described were used to test compounds 70 and 71 on a panel of sixty cell lines under a screening service provided by the Developmental Therapeutics Program at the National Institutes of Health. Shown in FIG. 1C are 1, RPMI-8226 leukemia cells; 2; NCI-H322M non-small cell lung cancer cells; 3, HT29 colon cancer cells; 4, U251 CNS cancer cells; 5, SK-MEL-28 melanoma cancer cells; 6, SK-OV-3 ovarian cancer cells; 7, RXF 393 renal cancer cells; 8, PC-3 prostate cancer cells; 9, MDA-MB-231 breast cancer cells.

OVCAR-3 = experiment: NCI DTP cell line screen (SRB), Ovarian Cancer
Protocol: as §1, §2, §3, §4, §5

OVCAR-8 = experiment: NCI DTP cell line screen (SRB), Ovarian Cancer; conditions: OVCAR-8
Protocol: as §1, §2, §3, §4, §5

IGROV1 = experiment: NCI DTP cell line screen (SRB), Ovarian Cancer
Protocol: as §1, §2, §3, §4, §5

OVCAR-4 = experiment: NCI DTP cell line screen (SRB), Ovarian Cancer
Protocol: as §1, §2, §3, §4, §5

SR = experiment: NCI DTP cell line screen (SRB), Leukemia
Protocol: as §1, §2, §3, §4, §5

K-562 = experiment: NCI DTP cell line screen (SRB), Leukemia
Protocol: as §1, §2, §3, §4, §5

MOLT-4 = experiment: NCI DTP cell line screen (SRB), Leukemia
Protocol: as §1, §2, §3, §4, §5

**Q.** NCC(=O)Nc1ccc(-n2nc(C(F)(F)F)cc2-c2ccc3c(ccc4ccccc43)c2)cc1 [Compound 70, 2-Amino-N-{4-[5-(2-phenanthrenyl)-3-(trifluoromethyl)-1H-pyrazol-1-yl]-phenyl}-acetamide] was tested. Which TGI (OVCAR-5) did it give?
**A.** Its TGI is 3.32E−06.

**Q.** And the “Percent Growth” value (OVCAR-5; Log10 Concentration −4.0)?
**A.** Its value is −71%.

**Q.** And the “Percent Growth” value (OVCAR-5; Log10 Concentration −5.0)?
**A.** The value was −83%.

**Q.** And the “Percent Growth” value (OVCAR-5; Log10 Concentration −6.0)?
**A.** Its value is 90%.

**Q.** What about the “Percent Growth” value (OVCAR-5; Log10 Concentration −7.0) of the same molecule?
**A.** Its value is 103%.

**Q.** And the “Percent Growth” value (OVCAR-5; Log10 Concentration −8.0)?
**A.** Its value is 97%.

**Q.** What about the TGI (OVCAR-3) of the same molecule?
**A.** The TGI was 3.32E−06.

**Q.** What about the “Percent Growth” value (OVCAR-3; Log10 Concentration −4.0) of the same molecule?
**A.** Its value is −35%.

**Q.** What about the “Percent Growth” value (OVCAR-3; Log10 Concentration −5.0) of the same molecule?
**A.** The value was −70%.

**Q.** What about the “Percent Growth” value (OVCAR-3; Log10 Concentration −6.0) of the same molecule?
**A.** Its value is 76%.

**Q.** What about the “Percent Growth” value (OVCAR-3; Log10 Concentration −7.0) of the same molecule?
**A.** The value was 83%.

**Q.** What about the “Percent Growth” value (OVCAR-3; Log10 Concentration −8.0) of the same molecule?
**A.** Its value is 89%.

**Q.** And the TGI (OVCAR-8)?
**A.** Its TGI is 4.05E−06.

**Q.** What about the “Percent Growth” value (OVCAR-8; Log10 Concentration −4.0) of the same molecule?
**A.** Its value is −24%.

**Q.** What about the “Percent Growth” value (OVCAR-8; Log10 Concentration −5.0) of the same molecule?
**A.** The value was −33%.

**Q.** What about the “Percent Growth” value (OVCAR-8; Log10 Concentration −6.0) of the same molecule?
**A.** The value was 51%.

**Q.** What about the “Percent Growth” value (OVCAR-8; Log10 Concentration −7.0) of the same molecule?
**A.** Its value is 102%.

**Q.** And the “Percent Growth” value (OVCAR-8; Log10 Concentration −8.0)?
**A.** Its value is 97%.

**Q.** And the TGI (IGROV1)?
**A.** The TGI was 3.97E−06.

**Q.** What about the “Percent Growth” value (IGROV1; Log10 Concentration −4.0) of the same molecule?
**A.** Its value is −35%.

**Q.** What about the “Percent Growth” value (IGROV1; Log10 Concentration −5.0) of the same molecule?
**A.** Its value is −49%.

**Q.** And the “Percent Growth” value (IGROV1; Log10 Concentration −6.0)?
**A.** Its value is 74%.

**Q.** And the “Percent Growth” value (IGROV1; Log10 Concentration −7.0)?
**A.** Its value is 107%.

**Q.** What about the “Percent Growth” value (IGROV1; Log10 Concentration −8.0) of the same molecule?
**A.** The value was 97%.

**Q.** What about the TGI (OVCAR-4) of the same molecule?
**A.** The TGI was 3.41E−06.

**Q.** And the “Percent Growth” value (OVCAR-4; Log10 Concentration −4.0)?
**A.** The value was −68%.

**Q.** And the “Percent Growth” value (OVCAR-4; Log10 Concentration −5.0)?
**A.** Its value is −82%.

**Q.** And the “Percent Growth” value (OVCAR-4; Log10 Concentration −6.0)?
**A.** The value was 94%.

**Q.** And the “Percent Growth” value (OVCAR-4; Log10 Concentration −7.0)?
**A.** The value was 92%.

**Q.** What about the “Percent Growth” value (OVCAR-4; Log10 Concentration −8.0) of the same molecule?
**A.** The value was 99%.

**Q.** What about the TGI (SR) of the same molecule?
**A.** Its TGI is 4.17E−06.

**Q.** What about the “Percent Growth” value (SR; Log10 Concentration −5.0) of the same molecule?
**A.** Its value is −27%.

**Q.** What about the “Percent Growth” value (SR; Log10 Concentration −6.0) of the same molecule?
**A.** Its value is 45%.

**Q.** What about the “Percent Growth” value (SR; Log10 Concentration −7.0) of the same molecule?
**A.** The value was 80%.

**Q.** And the “Percent Growth” value (SR; Log10 Concentration −8.0)?
**A.** The value was 84%.

**Q.** And the TGI (K-562)?
**A.** Its TGI is 3.34E−06.

**Q.** What about the “Percent Growth” value (K-562; Log10 Concentration −4.0) of the same molecule?
**A.** The value was −17%.

**Q.** What about the “Percent Growth” value (K-562; Log10 Concentration −5.0) of the same molecule?
**A.** Its value is −30%.

**Q.** And the “Percent Growth” value (K-562; Log10 Concentration −6.0)?
**A.** The value was 33%.

**Q.** What about the “Percent Growth” value (K-562; Log10 Concentration −7.0) of the same molecule?
**A.** The value was 62%.

**Q.** And the “Percent Growth” value (K-562; Log10 Concentration −8.0)?
**A.** The value was 97%.

**Q.** And the TGI (MOLT-4)?
**A.** Its TGI is 3.10E−06.

**Q.** And the “Percent Growth” value (MOLT-4; Log10 Concentration −4.0)?
**A.** The value was −6%.

**Q.** And the “Percent Growth” value (MOLT-4; Log10 Concentration −5.0)?
**A.** Its value is −42%.

**Q.** What about the “Percent Growth” value (MOLT-4; Log10 Concentration −6.0) of the same molecule?
**A.** The value was 41%.

**Q.** What about the “Percent Growth” value (MOLT-4; Log10 Concentration −7.0) of the same molecule?
**A.** The value was 87%.

**Q.** What about the “Percent Growth” value (MOLT-4; Log10 Concentration −8.0) of the same molecule?
**A.** The value was 89%.

— patent US8541460B2, “PDK-1/Akt signaling inhibitors” (The Ohio State University, priority 2003, dated 2013)
